Measurements reported in the CheMixHub viscosity set.

What was measured:
[1] = 100 kPa
[2] = xn = mol fraction of the nth substance listed

CCn1cc[n+](C)c1.[Cl][Al-]([Cl])([Cl])[Cl+][Al-]([Cl])([Cl])[Cl]
[1]
Settings	viscosity [mPa·s]
293.15 K	16.11
303.15 K	12.41
313.15 K	9.79
323.15 K	7.943

CN1CCC[C@H]1c1cccnc1 + ClC(Cl)Cl
viscosity [mPa·s], [2], 101.33 kPa
Settings	298.15 K	308.15 K	323.15 K
x1 = 0.1107	0.8162	0.7343	0.6076
x1 = 0.1213	0.8741	0.7473	0.6289
x1 = 0.2022	1.135	0.9654	0.8066
x1 = 0.219	1.197	0.9796	0.8071
x1 = 0.2456	1.275	1.082	0.8894
x1 = 0.2972	1.463	1.206	0.958
x1 = 0.3738	1.8	1.473	1.138
x1 = 0.4026	1.921	1.588	1.198
x1 = 0.4882	2.296	1.818	1.361
x1 = 0.5032	2.395	1.9	1.402
x1 = 0.6129	2.846	2.267	1.651
x1 = 0.623	2.964	2.301	1.663
x1 = 0.6823	3.103	2.409	1.756
x1 = 0.6974	3.196	2.471	1.768
x1 = 0.8059	3.563	2.756	1.912
x1 = 0.8931	3.704	2.959	2
x1 = 0.8962	3.741	2.974	2.002

CC(C)C#N + Clc1ccccc1
viscosity [mPa·s], [2], 101 kPa
Settings	x2 = 0.1028	x2 = 0.2026	x2 = 0.3007	x2 = 0.4004	x2 = 0.5004	x2 = 0.6004	x2 = 0.6996	x2 = 0.7998	x2 = 0.8999
303.15 K	0.487	0.513	0.537	0.562	0.585	0.61	0.636	0.663	0.689
308.15 K	0.456	0.48	0.503	0.525	0.545	0.569	0.592	0.616	0.643

CC(C)C#N + Clc1ccccc1Cl
viscosity [mPa·s], [2], 101 kPa
Settings	x2 = 0.1007	x2 = 0.2025	x2 = 0.2999	x2 = 0.4004	x2 = 0.4997	x2 = 0.599	x2 = 0.6994	x2 = 0.7997	x2 = 0.8989
303.15 K	0.526	0.594	0.659	0.73	0.793	0.874	0.947	1.03	1.118
308.15 K	0.489	0.551	0.608	0.667	0.732	0.798	0.87	0.945	1.02

OCCCl + Nc1cccc(Cl)c1
[2], 100 kPa
Settings	viscosity [mPa·s]
303.15 K, x2 = 0.7938	3.925
308.15 K, x2 = 0.3622	2.855
313.15 K, x2 = 0.0844	1.995
313.15 K, x2 = 0.5814	2.795
